Experimental data as given in patent US20260337177A1, “TEAD CORE INHIBITORS FOR CANCER THERAPEUTICS” (University of Florida Research Foundation, Incorporated, priority 2023, published 2026).

Key:
[1] = test system: HepG2 cells; assay: HepG2 cell growth inhibition; format: cell-based; conditions: Homo sapiens, FIG. 25A
[2] = test system: NCI-H226 cells; assay: NCI-H226 cell growth inhibition (CCK-8, 3 days); format: cell-based; conditions: Homo sapiens, NCI-H226, 72 h, NF2-deficient mesothelioma, read-out: Antiproliferative IC50, NCI-H226
Experimental: The inhibitory effects of compound 22 were assessed against YAP TEAD related NF2-deficient mesothelioma cell NCI-H226 and triple negative breast cancer cell Hs578T. The growth inhibition ratio was measured using a CCK-8 assay after 3 days of treatments.

[3] = test system: HepG2 cells; assay: Cell cycle analysis by flow cytometry, HepG2; format: cell-based, human; conditions: 5 and 10 μM
Experimental: To study the potential mechanistic pathways responsible for cell proliferation inhibition by compound 22, the change of cell cycle in Huh7 and HepG2 liver cancer cell lines was evaluated. DNA-based cell cycle analysis was performed using flow cytometry. […] To explore whether compound 22 also induces G1 phase arrest in HepG2 cells similar to its effects on Huh7 cells, parallel investigations were performed. […] However, the impact of 22 on inducing G1 phase arrest was less pronounced in HepG2 cells compared to Huh7 cells.
For cell cycle analysis, cells were fixed with pre-cold 70% ethanol for 30 minutes. Then the cells were washed with PBS and stained with propidium iodide working solution for 30 minutes in the dark. The stained cells were analyzed by flow cytometry. Cell cycle distribution was analyzed using FlowJo_V10 software. For each experiment, 20000 events per sample were recorded. Percentages of cells in G0/G1, S and G2/M phases were calculated and shown in DNA histograms.

[4] = test system: Huh7 cells; assay: Apoptosis by Annexin V/PI flow cytometry, Huh7; format: cell-based, human; conditions: 48 h
Experimental: (§1) In order to gain deeper insights into the underlying anticancer mechanism of compound 22, experiments were performed to validate whether the induction of G1 phase cells by compound 22 was linked to apoptosis. To achieve this, the cells treated with compound 22 were subjected to PI and FITC-annexin V staining to detect apoptotic cells. […] The proportions of total apoptosis including the early stage apoptosis and the later stage of apoptosis were 66.8%, and 83.5%, respectively, at concentrations of 5 and 10 μM. This trend was similarly observed in the case of HepG2 cells. […] The impact of compound 22 on inducing cell apoptosis was less pronounced in HepG2 cells compared to Huh7 cells, aligning with the outcomes of the cell cycle analysis, providing further coherence to the observed effects of compound 22 on these cell lines.
(§2) Apoptosis was detected using an Annexin V-FITC apoptosis detection kit (Thermo Fisher Scientific) following the manufacturer’ instructions. Briefly, about 50000 cells were suspended in 500 μl of binding buffer. The cells were incubated with 5 μl FITC-conjugated Annexin V for 15 minutes and incubated with 5 μl propidium Iodide staining solution for 15 minutes in darkness at room temperature. Cell apoptosis was then analyzed by flow cytometry using a FACSCalibur flow cytometer (Becton Dickinson, San Jose, CA).

[5] = test system: HepG2 cells; assay: Apoptosis by Annexin V/PI flow cytometry, HepG2; format: cell-based, human; conditions: 10 μM; 48 h
Experimental: as §1, §2

[6] = test system: Huh7 xenograft; assay: Huh7 mouse xenograft model, antitumor efficacy; format: in vivo, NSG mouse
Experimental: Based on the favorable in vitro potency and low toxicity, the in vivo antitumor efficacy of compound 22 was further evaluated in the NSG mouse (NOD scid gamma mouse) xenograft model from human Huh7 cells. Sorafenib, the first-line treatment for primary hepatocellular carcinoma (HCC) patients, served as the control. Compound 22 was tested as a monotherapy and in combination with Sorafenib.
The animals were administered 10 mg/kg of compound 22 twice a week for four weeks via intraperitoneal (IP) injection.
The mice were administered 50 mg/kg of compound 22 every three day for 24 days via intraperitoneal (IP) injection. Sorafenib was administered orally at a dose of 100 mg/kg following the same schedule.
Tumors were implanted by subcutaneous injection of 5×10^6 Huh7 cells in 100 μL of PBS containing 10% matrix gel (Coming, NY, USA), into the right flank of the mouse. When the tumor volume reached about 85 mm^3, mice were randomized into the vehicle control group (n=5) and a treatment group (n=5). The vehicle group (n=5) received the vehicle only (50% phosal 50 PG, 45% miglyol 810 N and 5% polysorbate 80), while the treatment group (n=5) was given compound 22 (50 mg/kg in 50% phosal 50 PG, 45% miglyol 810 N and 5% polysorbate 80) via IP injection every three days. After 24 days, mice were euthanized. Sorafenib (100 mg/kg, every three day) was dissolved in 75% Ethanol and Cremophor EL (1:1) and administered directly into the animals' stomachs using a gastric probe. Tumor size and body weight were measured every 3 days, and tumor volume was estimated using the formula volume=½×length×width^2. Tumor growth inhibition value (TGI) was calculated as TGI (%) [1−Vt/Vc]×100, where Vc and Vt were […].

[7] = test system: CTGF; assay: CTGF protein expression by western blotting in Huh7 cells; format: cell-based, human; conditions: dose-dependent
Experimental: Treated Huh7 cells were harvested and lysed in cold RIPA lysis buffer containing […] and phosphatase inhibitors. The protein concentrations were determined using the BCA Protein Assay kit. The prepared protein samples were loaded on and separated by 10% SDS-PAGE gel and then were transferred to PVDF membrane. Blots were blocked for 1 h at RT in blocking buffer and incubated with corresponding primary antibodies: anti-CTGF (ab227180), and anti-GAPDH (ab9485), at 4 ° C overnight. Then the blots were incubated with HRP-conjugated anti-rabbit secondary antibody in blocking buffer for 1.5 h at RT. The membranes were imaged with ChemiDoc MP imaging system.

[8] = test system: HepG2 cells; assay: MTT assay, HepG2 survival; format: cell-based, human; conditions: FIG. 7
[9] = test system: Huh7 cells; assay: MTT assay, Huh7 viability; format: cell-based, human; conditions: FIG. 9
[10] = test system: HepG2 cells; assay: Apoptosis by calcein AM and ethidium homodimer-1 staining, HepG2; format: cell-based, human

O=C(CCl)c1c[nH]c2cc(Cl)c(OCc3cccc(C(F)(F)F)c3)cc12 [Compound 22, 2-chloro-1-(6-chloro-5-((3-(trifluoromethyl)benzyl)oxy)-1H-indol-3-yl)ethan-1-one]
IC50 [1]: 2400 nM | IC50 [2]: 400 nM | Accumulation in G1 phase, HepG2 [3]: accumulation of HepG2 cells in the G1 phase | Proportion of total apoptosis (early + late), Huh7 ([4]; 5 μM): 66.8% | Proportion of total apoptosis (early + late), Huh7 ([4]; 10 μM): 83.5% | Maximum apoptotic rate (early+late apoptotic), HepG2 [5]: 69.0% | Tumor growth inhibition (TGI) rate ([6]; 10 mg/kg IP twice a week for four weeks): 78% | Tumor growth inhibition (TGI) rate ([6]; 50 mg/kg IP every three days for 24 days): 75% | Body weight change ([6]; xenograft mice, FIG. 6C): No significant change | CTGF protein expression, Huh7 [7]: suppression of CTGF protein production | HepG2 survival, MTT assay [8]: inhibits | Huh7 viability, MTT assay [9]: inhibits | HepG2 cell apoptosis [10]: promotes HepG2 cell apoptosis
